Laboratory results: US20250066286A1, “COMPOSITIONS OF (Z)-ENDOXIFEN AND METHODS OF ENRICHMENT THEREOF” (Atossa Therapeutics, Inc., priority 2022, published 2025)
Like-named read-outs stand apart in the source and are kept apart here. One block for each molecule: values may come before it.

Assays:
[1] = Storage stability of polymorphic forms at room temperature in a sealed vial (XRPD time course); format: physicochemical; conditions: room temperature
Procedure: Form I samples were collected for XR-PD analysis following 0, 7, and 42 days of storage, the results of which are shown in FIG. 10.
The stability of polymorphic Form IV was evaluated over 7 days of storage at room temperature in a sealed vial. Portions of the Form IV samples were collected for XRPD analysis following 0 (Form IV), 3 (Form IV-3D3-storage), and 7 days (Form IV-7D3-storage) of storage, the results of which are shown in FIG. 14.
The stability of polymorphic Form IV was also evaluated following crystallization from a room temperature 2-propanol/THF 95/5 (v/v) solvent system containing 40 mg/ml (Z)-endoxifen. XPRD was collected immediately after recovery and following 15 days storage at room temperature in a sealed vial. FIG. 15 provides the resultant XRPD patterns following 15 days storage (Form IV-2PR/THF-15D-storage) and 0 days storage (Form IV-2PR/THF-0D-storage), as well as an XRPD spectrum of Form IV (Form IV) obtained from 2-propanol recrystallization.
Since the room temperature evaporation in acetone yielded a mixture of polymorphic Form I and Form IV XRPD patterns with a very intense unassigned signal at 16.1° 2θ, the sample was re-measured following 7 days storage in a sealed vial. From top to bottom, FIG. 16 provides XRPD patterns of the acetone-generated polymorphs following 7 (EVRT-ACT-7D-storage) and 0 days of storage (EVRT-ACT-0D-storage), a Form IV spectrum (Form IV), and a Form I (Form I) spectrum, respectively.
Form XVII was further assessed after 3 days storage in a sealed vial at room temperature.
Form XVIII was further reassessed by XRPD following 3 and 7 days storage at room temperature in a sealed vial. The data from these analyses are summarized in FIG. 24, which (from top to bottom) provides the sample following 7 days storage (Form XVIII-7D-storage), the sample following 3 days storage (Form XVIII-3D-storage), and the sample immediately following crystallization (Form XVIII).
Form XIX room temperature stability was evaluated with XRPD. XRPD of a Form XIX sample immediately following crystallization (Form XIX) and following 7 days of storage (Form XIX-7D-storage) are shown in FIG. 26.
The stability of polymorphic Form V was over 10 days of storage at room temperature in a sealed vial. XR-PD was performed following 0, 3, and 10 days storage.
To evaluate Form VI stability, XRPD spectra of a Form VI sample were collected following 0, 3, and 14 days of room temperature storage in a sealed vial. The resulting XRPD patterns of the sample following 0 (Form VI), 3 (Form VI-3D-storage), and 14 days storage (Form VI-14D-storage) are shown in FIG. 30.
The stability of polymorphic Form VII was evaluated over 7 days of storage at room temperature in a sealed vial. Portions of the Form VII samples were collected for XRPD analysis over 7 days of storage, the results of which are shown in FIG. 32.
Form VIII stability over 7 days storage in a sealed vial at room temperature was evaluated with XRPD.
The stability of Form IX generated by precipitation from an ethyl acetate/heptane solvent system (Form IX Recrystallization (1)) was evaluated over 7 days of storage at room temperature. Portions of the Form IX sample were collected following 0 and 7 days of storage in a sealed vial and analyzed by XRPD analysis to identify possible changes in the polymorph.
Form IX stability was separately characterized for crystals generated through the addition of (Z)-endoxifen saturated ethyl acetate to heptane (Form IX Recrystallization (2)), which yielded higher crystallinity Form IX than was afforded by heptane addition to (Z)-endoxifen saturated ethyl acetate.
Form IX stability was further evaluated for crystals generated by precipitation from an acetone/butyl methyl ether (acetone/BME) solvent/antisolvent mixture (Form IX Recrystallization (4)). Portions of the Form IX sample were collected following 0 and 5 days of storage in a sealed vial at room temperature and compared to reference XRPD patterns of Forms VII and IX. […]

[2] = Mechanical stability: grinding and kneading by ball milling (XRPD); format: physicochemical
Procedure: Stability tests were performed on mixtures of Form I and Form IV; Form I and Form VII; and Form I, Form IV, and Form VII. In a first mechanical stability test, the polymorphs were analyzed by XRPD following 10 minutes of grinding by ball milling at 30 Hz. In a second mechanical stability test, the polymorphs were analyzed by XRPD following 10 minutes of kneading by ball milling at 30 Hz in the presence of a catalytic amount of 2-propanol (2 μl).

[3] = Stability at various temperatures and relative humidities, seven days (XRPD); format: physicochemical; conditions: 7 days
Procedure: The stabilities of the polymorphs were also assessed at various temperatures and relative humidities. These analyses were performed by storing 20 mg of polymorph samples for seven days at: (1) 25° C. and 100% relative humidity, (2) 40° C. and 75% relative humidity, (3) 25° C. and 60% relative humidity, and (4) at 60° C. and 75% relative humidity. XRPD was collected on the samples following these incubations and compared to XRPD of the samples prior to storage.

[4] = Thermal treatment of Form IV at 90° C. and 50 mbar (XRPD); format: physicochemical
Procedure: To confirm the DSC results, Form IV deterioration was subject to thermal treatment by incubation for 1 hour at 90° C. and 50 mbar, storage for 18 hours at room temperature, and a second incubation for 3.5 hours 90° C. and 50 mbar. XRPD analysis was performed on the sample following the 1 hour incubation at 90° C. and 50 mbar, after the 18 hours of storage at room temperature, and after the final 3.5 hour incubation 90° C. and 50 mbar.

[5] = Thermogravimetric analysis (TGA), degradation; format: physicochemical
Procedure: The TGA profile of Form I is shown in the top panel of FIG. 12 with the heat-flow profile in the middle panel of FIG. 12, and the first derivative of the TGA profile in the bottom pane of FIG. 12. […] A weight loss of 0.2% was detected between 140° C. and 180° C., potentially ascribable to solvent release. Degradation of Form I took place above 270° C. The heat-flow profile included two main peaks around 50° C. and 160° C. The first derivative of the TGA profile indicated a greatest decline in the TGA profile occurred around 400° C., and that weight loss occurred around 320° C.

[6] = Slurries with amorphous (Z)-endoxifen (XRPD); format: physicochemical; conditions: for Polymorphic form recovered (XRPD): 22 days stirring at room temperature
Procedure: Further slurry experiments were performed utilizing amorphous (Z)-endoxifen as an input. 20 mg of amorphous (Z)-endoxifen was suspended in 200 μl of various solvent mixtures. Following 22 days of stirring at room temperature, solid (Z)-endoxifen was recovered from the slurries during centrifugation at 4000 rpm for 3 minutes with a nylon filter (0.22 μm).

[7] = cited from earlier work

XRPD change on storage ([1]; 7 days, sealed vial): stable under ambient conditions | XRPD pattern after kneading ([2]; 10 minutes ball milling at 30 Hz with catalytic 2-propanol (2 μl)): mixture of Form I and Form IV | XRPD pattern after storage ([3]; 25° C. and 100% relative humidity): Form I with trace of Form IV | XRPD pattern after storage ([3]; 40° C. and 75% relative humidity): Form I with minor traces of Form IV | XRPD pattern after thermal treatment ([4]; after 1 hour at 90° C. and 50 mbar): Form IV with traces of Form I | XRPD pattern after thermal treatment ([4]; after final 3.5 hour treatment at 90° C. and 50 mbar (following 1 hour at 90° C. and 18 hours at room temperature)): Form IV with traces of Form I | Degradation temperature (TGA) [5]: above 270 °C | Degradation temperature (TGA) ([5]; sample from scaled-up crystallization): above 270 °C
Compound: CC/C(=C(\c1ccc(O)cc1)c1ccc(OCCNC)cc1)c1ccccc1 [Form IV, (Z)-endoxifen]
XRPD change on storage ([1]; 15 days, sealed vial, sample crystallized from 2-propanol/THF 95/5 (v/v)): maintained a Form IV XRPD pattern following 15 days storage, its XRPD spectrum also exhibited a new signal at 16.1° 2θ | XRPD pattern after mechanical grinding ([2]; 10 minutes ball milling at 30 Hz): Form I with a mild signal at 4.8° 20 ascribable to Form IV

Output Main phase [phase] ([6]; SLRT: acetone/tetrahydrofuran 90/10, 100 mg/mL, RT, 22 d, amorphous input): Form I | Polymorphic form recovered (XRPD) ([6]; acetone/tetrahydrofuran slurry): Form I with additional unassigned peaks | Polymorphic form recovered (XRPD) ([6]; ethyl acetate/heptane slurry): Form IX | Polymorphic form recovered (XRPD) ([6]; one of the 2-propanol/tetrahydrofuran slurries): Form IV
Compound: CC/C(=C(\c1ccc(O)cc1)c1ccc(OCCNC)cc1)c1ccccc1 [amorphous (Z)-endoxifen, (Z)-endoxifen]
XRPD change on storage ([1]; 18 days): stable and does not convert into other polymorphic forms

Compound: CC/C(=C(\c1ccccc1)c1ccc(OCCN(C)C)cc1)c1ccccc1 [tamoxifen, (Z)-2-[4-(1,2-diphenyl-1-butenyl)phenoxy]-N,N-dimethylethanamine]
Terminal elimination half-life ([7]; in vivo): 120 to 170 h | Peak concentration time ([7]; post-dose): approximately 5 hours | Reported therapeutic levels of plasma tamoxifen ([7]; subjects dosed with 20 mg of oral tamoxifen): ≥ 30 nM
